Reference: paper PMC10861593, “Kisspeptin-10 binding to Gpr54 in osteoclasts prevents bone loss by activating Dusp18-mediated dephosphorylation of Src” (Nature Communications, 2024)
Entries after “also recorded” stand apart in the source; their conditions may differ. Where no end group is shown, it is not given here. [ ]: non-standard residue; d: D form. azaGly = NNC(=O)O

Columns and labels:
[1] = cited from earlier work
Excerpt: (§1) Bone targeting Kp-10 ([…] D-Tyr–Asn-(D-Trp)-Asn-Ser-Phe-(azaGly)-Leu-Arg (Me)-Phe-NH2) was designed using six repetitive sequences of aspartate, serine, and serine, which is a bone surface-targeting delivery system as previously described.

GPR54 = test system: GPR54; design: method as in PMID 22975302; conditions: cited from earlier work
Excerpt: as §1

FSH and LH = assay: Elisa of serum FSH and LH; type: in vivo, mouse; conditions: 10 nmol/kg twice per week for two months, versus vehicle; n = 6 per group
Excerpt: Supplementary Fig. 16 a Representative image of Von Kossa staining of sham-operated female C57 mice treated with vehicle (Sham, n=4), ovariectomized mice (OVX, n=3), and OVX mice treatment with 1 nmol/kg Kp-10 (n=6),10 nmol/kg Kp-10 (n=6),1 nmol/kg (DSS)*6-Kp-10 (n=5) or 10 nmol/kg (DSS)*6-Kp-10 (n=6) twice one week by intraperitoneal injection for two months. […] BV/TV, bone volume as a fraction of total bone volume; Tb. Th, trabecular thickness; Tb. Sp, trabecular separation; Tb. N, trabecular number. c Elisa assay showing LH, FSH derived from the serum of sham-operated female C57 mice treated with vehicle (Sham+ vehicle) or 10 nmol/kg (DSS)*6-Kp-10 (Sham+10 nmol/kg Kp-10), ovariectomized mice treated with vehicle (OVX+ vehicle) or 10 nmol/kg (DSS)*6-Kp-10 (OVX+ 10 nmol/kg Kp-10) twice one week by intraperitoneal injection for two months. n=6 per group. Error bars are ± SEM. P-values were determined by two-way ANOVA analysis (b, c) ***P <0.001, ****P <0.0001. “ns” means no significant difference. Representative results were observed from at least three independent experiments. Source data are provided as a Source Data file.

OVX mice = assay: OVX-induced bone loss model (and sham-operated mice); type: in vivo, mouse
Excerpt: Fig. 7 Kp-10 ameliorated OVX-induced bone loss. a, c Representative micro-CT images of femoral trabecular bone (a) and cortical bone (c). Female C57 mice treated with vehicle (Sham) or 50 nmol/kg (DSS)*6-Kp-10, ovariectomized mice (OVX) treated with vehicle or 50nmol/kg (DSS)*6-Kp-10 twice one week by intraperitoneal injection (n = 6 per group). Scale bar, 500 µm. b, d Parameter analysis of femurs from the mice above. BMD bone mineral density, BV/TV bone volume as a fraction of total bone volume, Tb.Th trabecular thickness, Tb.N trabecular number, Tb.Sp trabecular separation. e Representative TRAP staining images of femurs from Fig. 7a. f Histomorphometry analysis of the femurs from Fig. 7a. Oc.S/BS osteoclast surface per bone surface, N.Oc/B.Pm osteoclast bone surface density, ES/BS eroded surface per bone surface. Data represent means ± SEM. P values were determined by one-way ANOVA analysis (b, d, f). Representative results were obtained from at least three independent experiments. Source data are provided as a Source Data file.
3D micro-CT analyses were performed as previously described. We scanned the femur using in vitro X-ray microtomography (Skyscan 1272, Bruker micro CT) at a pixel size of 9 µm, and analyzed the results according to the manufacturer’s instructions. Region-of-interest (ROI) was defined from 10 to 110 image slices, where the growth plate slice was defined as 0 mm. The contrast was defined from 68–255; 3D analysis, BMD, and 3D models were analyzed using CTAn software (Bruker micro CT). 3D models were adjusted in CT Vox software (Bruker micro CT).
Bone tissue was removed of excess tissues and fixed with 4% formalin, decalcified with 0.5 M EDTA for 10–14 days, embedded with paraffin, sectioned, and stained using the TRAP staining kit (Sigma-Aldrich, 387A-1KT). The third lumbar spine vertebrae (L3) were fixed with 4% formalin, sectioned, and subjected to Von Kossa staining as described previously[60],[61]. For double calcian labeling assay, 4−5 week-old mice were administrated calcian (30 μg/mL) through intraperitoneal injection for the first time and the second time after 10 days. The third lumbar spine vertebrae (L3) were fixed with 4% formalin, sectioned, and subjected to Goldner’s Masson trichrome staining, or acquisition of fluorescence images. Histomorphometric measurements were made using the OsteoMeasure Analysis System (Osteometrics, Atlanta, GA, USA) according to standard criteria.
For animal studies in vivo, mice were randomized for weight. For the OVX-induced bone loss model, 2-month-old female C57BL/6 mice were sham-operated (sham) or ovariectomized (OVX) and randomly divided into indicated groups. Vehicle, Kp-10 or (DSS)*6-Kp-10 was injected into the tail vein twice per week. After two months of treatment, the femurs and the L3 lumbrae were isolated for micro-CT or histomorphometric analysis. 3D micro-CT analyses were performed according to a standard protocol. BMD and bone volume were analyzed by CT-analysis software (CTAn, Bruker micro CT, Kontich, Belgium) and images were reconstituted by CT-volume software (CTvol, skyscan, CTAn, Bruker micro CT, Kontich, Belgium).
Supplementary Fig. 16 a Representative image of Von Kossa staining of sham-operated female C57 mice treated with vehicle (Sham, n=4), ovariectomized mice (OVX, n=3), and OVX mice treatment with 1 nmol/kg Kp-10 (n=6),10 nmol/kg Kp-10 (n=6),1 nmol/kg (DSS)*6-Kp-10 (n=5) or 10 nmol/kg (DSS)*6-Kp-10 (n=6) twice one week by intraperitoneal injection for two months. […]

Dusp18 knockout mice = assay: bone and osteoclast parameters in Dusp18 knockout mice; type: in vivo, mouse; conditions: femur
Excerpt: Data represent means ± SEM. […] Representative results were obtained from at least three independent experiments. Source data are provided as a Source Data file.

Src (Y416) = assay: in vitro phosphatase activity assay with Src; type: biochemical, human; conditions: purified proteins; 30 min at 30 °C; Western blot
Method: The C terminus of human GPR54 (H329- L398) and mouse Gpr54 (R331- L396) cDNAs were subcloned into a pGEX-4T2 vector. For purification of full-length WT human DUSP18 and DUSP18 (C104S) proteins, DUSP18 was cloned into pMCSG7 vector. For purification of Src (G85-L536) protein, cDNAs of human Src were subcloned into pFastBac HT B vector with an N-terminal 6xHis tag and expressed in Sf9 cells (Expression Systems) using the Bac-to-Bac Baculovirus Expression System (Invitrogen) for 48 h. For purification of the Src (G85-V247)-GPR54 (333–356 with C338S, C340S mutation) recombinant fusion protein, the C-terminus of GPR54 (333–356 with C338S and C340S mutation) was linked to the C terminus of Src SH3-SH2 domain (G85-V247), which was subcloned into the pMCSG7 vector.
For the total phosphatase activity assay, the Co-IP experiment was carried out after Kp-10 treatment of RAW264.7 cells for 20 min, followed by lysis and incubation with the Gpr54 antibody. The assay was performed according to the phosphatase assay kit (Sigma-Aldrich,17-313). For the DUSP18 phosphatase activity assay, His-DUSP18 and His-DUSP18 (C104S) were purified from E Coli, and His-Src was purified from Sf9 insect cells. His-DUSP18 and His-DUSP18 (C104S) were incubated with His-Src in 1x phosphatase buffer (20 mM HEPES, 20 mM MgCl2, 0.03% β-mercaptoethanol)[51] for 30 min at 30 °C with gentle shaking. […]

GPR54 CT [2] = assay: competitive pull-down assay, His-SRC and His-DUSP18 with GST-GPR54 CT; type: binding, human; conditions: His-SRC 0 or 0.1 μg, His-DUSP18 0, 0.1 or 0.2 μg
Method: Beads were analyzed by phosphatase activity assay (a), mass spectrometry assay (b), IB analysis (c) and quantification of protein levels (d). e, f Protein co-localization was analyzed by IF staining in primary pre-osteoclast with 10 nM Kp-10 treatment for 20 min. […] Scale bar, 50 µm. g, h binding affinity was measured by SPR binding analysis. […] Data represent means ± SEM. P values were determined by one-way ANOVA analysis (a, d, j, l) or two-tailed Student’s t-test (f). Representative results were obtained from at least three independent experiments. Source data are provided as a Source Data file.

GPR54 CT [3] = assay: GST pull-down / Co-IP of GPR54 CT with DUSP18, PTPN6 and PPP1CA; type: binding, human; conditions: 293T WCL, DUSP18-Flag, PPP1CA-Flag or PTPN6-Flag
Method: Supplementary Fig. 3 a, b SPR binding analysis showing the binding affinity of Src and human GPR54^336-356 peptide (a), Src and human GPR54 ^333-344 peptide (b). c, d Anti-Flag IP derived from 293T cells transfected with HA-Src and GPR54-Flag constructs with Kp-10 (10 nM) stimulation (c) and quantification of protein levels (d). e. e IF staining was carried out using pre-osteoclasts differentiated from BMMs in the presence of M-CSF (10 ng/ml) and RANKL (50 ng/ml) for 2 days. Representative images were shown by TIRF microscopy. f, g IB analysis of total samples and GST pull-downs using GST proteins including GST, GST-GPR54 CT incubated separately with WCL of 293T cells transfected with DUSP18-flag, PPP1CA-Flag or PTPN6-Flag (f), and quantification of protein levels (g). Error bars are ± SEM. P-values were determined by two-tailed Student’s t-test (d) or one-way ANOVA analysis (g). *P <0.05, Representative results were observed from at least three independent experiments. Source data are provided as a Source Data file.

D-Tyr–Asn-(D-Trp)-Asn-Ser-Phe-(azaGly)-Leu-Arg (Me)-Phe-NH2 [Modified Kp-10, Modified Kp-10 designed as previously described]
metabolic stability [1]: high metabolic stability | GPR54 agonistic activity (GPR54): excellent GPR54 agonistic activity

DSSDSSDSSDSSDSSDSS[dY]N[dW]NSF[azaGly]LR(Me)F-NH2 [(DSS)*6-Kp-10]
serum FSH and LH, sham and OVX mice (FSH and LH): same level of FSH and LH | bone mass, 50 nmol/kg, sham and OVX mice (OVX mice; 50 nmol/kg twice per week, micro-CT, femur, n = 6 per group): bone mass increased | osteoclast activation, 50 nmol/kg, sham and OVX mice (OVX mice; 50 nmol/kg twice per week, TRAP staining, Oc.S/BS, N.Oc/B.Pm, ES/BS, n = 6 per group): suppressed osteoclast activation both in sham-operated and OVX mice | bone protective effect versus Kp-10 (OVX mice; OVX mice, 1 or 10 nmol/kg twice per week for two months, Von Kossa staining, trabecular bone parameters): rescued OVX induced bone loss more effectively than Kp-10; also recorded: showed better bone protective effect; also recorded: showed better effects than Kp-10 on bone protection | bone loss / bone protection in vivo (summary statement) (OVX mice; in vivo, OVX-induced bone loss model): showed bone protection in the OVX-induced bone loss model by inhibiting osteoclast activity; also recorded: protects against bone loss | rescue of Dusp18 deletion induced osteoclast activity (Dusp18 knockout mice; TRAP staining and osteoclast parameters): not by (DSS)*6-KP-10 | rescue of Dusp18 deletion induced bone mass change (Dusp18 knockout mice; micro-CT and bone parameters, n = 5): not by (DSS)*6-KP-10

B1: DUSP18: full-length WT human DUSP18 (protein, UniProt Q8NEJ0 1-188, looked up)
chain: MTAPSCAFPVQFRQPSVSGLSQITKSLYISNGVAANNKLMLSSNQITMVINVSVEVVNTLYEDIQYMQVPVADSPNSRLCDFFDPIADHIHSVEMKQGRTLLHCAAGVSRSAALCLAYLMKYHAMSLLDAHTWTKSCRPIIRPNSGFWEQLIHYEFQLFGKNTVHMVSSPVGMIPDIYEKEVRLMIPL
modifications: full-length His tag
dephosphorylation of Src (Y416) (Src (Y416)): potently reduced the phosphorylation of Src (Y416) | competition with Src for binding to GPR54 CT (GPR54 CT [2]): competed with Src for binding to GPR54 CT | interaction with GPR54 among DUSP18, PTPN6 and PPP1CA (GPR54 CT [3]): had the strongest interaction with GPR54
